Laboratory results reported in paper PMC7413254 (Nature Communications, 2020).
Where “and” joins values, the source holds several entries; their conditions need not be identical. Equal entries are not always repeated. Where two headings read alike, the source gives them in different places.

Assays:
non-expressing oocytes [1] = assay: cells; type: cell-based, Xenopus laevis; conditions: Xenopus laevis, Oocyte
Procedure, shortened: (§1)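 PfCRT-expressing and control oocytes: ND96 pH 5.5 → 1.5 h at 27.5 °C → ice-cold ND96 wash → 10% SDS lysis → scintillation count.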

PfCRT^3D7 [2] = target: T1, PfCRT^3D7 (Plasmodium falciparum, UniProt Q8IBZ9); assay: cell-based; type: cell-based
Procedure, shortened: as §1

PfCRT^Dd2 [3] = target: T2, PfCRT^Dd2 (Plasmodium falciparum, UniProt Q9N623, A220S/I356T/K76T/M74I/N326S/N75E/Q271E/R371I); assay: [3H]CQ uptake into Xenopus oocytes, cis-inhibition by unlabelled solute; type: cell-based
Procedure, shortened: as §1

PfCRT^Ecu1110 [4] = target: T3, PfCRT^Ecu1110 (Plasmodium falciparum, UniProt Q9N623, A220S/I356L/K76T/N326D); assay: as above; type: cell-based
Procedure, shortened: as §1

non-expressing oocytes [5] = type: cell-based, Xenopus laevis
Procedure, shortened: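 Oocytes (ten per treatment, ≥4 independent frogs/days) were preloaded by injecting VF-6 in 25 nL ND96 at pH 5.0, 5.5, 6.0 or 7.0, or Na^+-free choline buffer, then uptake run 1.5 h, 27.5 °C, ND96 pH 5.5 by default. Internal concentrations assumed ~400 nL oocyte volume.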

PfCRT^3D7 [6] = target: T1, PfCRT^3D7; assay: cell-based; type: cell-based; remark: listed apart in the source
Procedure, shortened: (§2)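 Transport measured in Xenopus oocytes expressing the transporters, 1.5 h at 27.5 °C in ND96 pH 5.5 unless noted. For trans-stimulation, VF-6 injected in 25 nL ND96 at pH 5.0–7.0 or Na^+-free (choline) buffer; intracellular levels based on ~400 nL oocyte volume. Ten oocytes per treatment, ≥4 experiments.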

PfCRT^Dd2 [7] = target: T2, PfCRT^Dd2; assay: cell-based; type: cell-based; conditions: […]; for activity at 45000 µM: [test solute]i = 45 mM (30 mM for some solutes due to solubility)
Procedure, shortened: as §2

PfCRT^Ecu1110 [8] = target: T3, PfCRT^Ecu1110; assay: cell-based; type: cell-based; conditions: […]
Procedure, shortened: as §2

PfNT1 = target: T4, PfNT1 (Plasmodium falciparum, UniProt Q8IDM6); assay: cell-based; type: cell-based; conditions: […]
T4 construct: expressed in transfected cells; host or cells: Xenopus laevis oocytes (stage V-VI), cRNA-injected
Procedure, shortened: as §2

PfCRT [9] = assay: Test of solutes as potential co-substrates for influx of VF-6 via PfCRT into the oocyte; type: cell-based, Plasmodium falciparum; parameters: key: X: Compounds that have been tested as potential co-substrates but are not required for influx of VF-6 via PfCRT into the oocyte; conditions: X = tested
PfCRT [10] = assay: Potential co-substrates tested for influx of VF-6 via PfCRT into the oocyte; type: cell-based, Plasmodium falciparum; parameters: key: X: Compounds that have been tested as potential co-substrates but are not required for influx of VF-6 via PfCRT into the oocyte
[11] = read-out: Uptake of [3H]CQ (% PfCRTDd2 control), cis-inhibition, non-expressing oocytes, SEM
[12] = read-out: Uptake of [3H]CQ (% non-expressing oocyte control), cis-inhibition
[13] = read-out: Uptake of [3H]CQ (% PfCRT3D7 control), cis-inhibition
[14] = read-out: Uptake of [3H]CQ (% PfCRTDd2 control), cis-inhibition, PfCRT3D7, SEM
[15] = read-out: PfCRT-mediated [3H]CQ transport, cis-inhibition (% PfCRTDd2 control)
[16] = read-out: Uptake of [3H]CQ (% PfCRTDd2 control), cis-inhibition, PfCRTDd2, SEM
[17] = read-out: PfCRT-mediated [3H]CQ transport, cis-inhibition (% PfCRTEcu1110 control)
[18] = read-out: Uptake of [3H]CQ (% PfCRTDd2 control), cis-inhibition, PfCRTEcu1110, SEM
[19] = read-out: Uptake of [3H]CQ (% PfCRTEcu1110 control), cis-inhibition
[20] = read-out: [3H]CQ transport (% PfCRTEcu1110 control), cis-inhibition, PfCRTEcu1110, SEM
[21] = read-out: PfCRT-mediated [3H]CQ transport, trans-stimulation (% PfCRT3D7 control)
[22] = read-out: Uptake of [3H]CQ (% PfCRT3D7 control), trans-stimulation
[23] = read-out: Uptake of [3H]CQ (% PfCRTDd2 control), trans-stimulation, PfCRT3D7, SEM
[24] = read-out: Uptake of [3H]CQ (% PfCRTDd2 control), trans-stimulation, PfNT1, SEM
[25] = read-out: Uptake of [3H]CQ (% PfNT1 control), trans-stimulation

T4 sequence (Q8IDM6 whole entry): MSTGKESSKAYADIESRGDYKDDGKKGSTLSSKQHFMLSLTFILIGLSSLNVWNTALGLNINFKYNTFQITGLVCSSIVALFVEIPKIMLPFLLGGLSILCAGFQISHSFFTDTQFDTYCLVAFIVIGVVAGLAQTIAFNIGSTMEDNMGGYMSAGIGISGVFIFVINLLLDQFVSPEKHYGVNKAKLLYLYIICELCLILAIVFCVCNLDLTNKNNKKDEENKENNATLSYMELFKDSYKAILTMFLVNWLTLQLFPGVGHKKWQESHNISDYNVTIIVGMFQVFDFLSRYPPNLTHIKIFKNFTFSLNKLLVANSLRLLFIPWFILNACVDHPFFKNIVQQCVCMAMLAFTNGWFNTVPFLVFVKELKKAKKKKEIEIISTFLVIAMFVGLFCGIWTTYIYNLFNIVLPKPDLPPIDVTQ
T3 sequence (Q9N623 whole entry A220S/I356L/K76T/N326D): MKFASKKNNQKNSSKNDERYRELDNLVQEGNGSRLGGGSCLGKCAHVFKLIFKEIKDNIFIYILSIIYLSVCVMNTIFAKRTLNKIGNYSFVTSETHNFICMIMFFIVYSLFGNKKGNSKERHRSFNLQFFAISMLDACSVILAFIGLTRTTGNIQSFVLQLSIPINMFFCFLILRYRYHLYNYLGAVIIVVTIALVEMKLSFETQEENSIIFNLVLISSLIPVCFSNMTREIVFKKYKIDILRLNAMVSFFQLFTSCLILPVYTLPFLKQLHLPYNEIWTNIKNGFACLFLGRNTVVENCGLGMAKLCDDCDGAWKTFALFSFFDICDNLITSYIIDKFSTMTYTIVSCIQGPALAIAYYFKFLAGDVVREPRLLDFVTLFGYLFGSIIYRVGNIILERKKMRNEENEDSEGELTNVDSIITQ
T1 sequence (Q8IBZ9 59-398): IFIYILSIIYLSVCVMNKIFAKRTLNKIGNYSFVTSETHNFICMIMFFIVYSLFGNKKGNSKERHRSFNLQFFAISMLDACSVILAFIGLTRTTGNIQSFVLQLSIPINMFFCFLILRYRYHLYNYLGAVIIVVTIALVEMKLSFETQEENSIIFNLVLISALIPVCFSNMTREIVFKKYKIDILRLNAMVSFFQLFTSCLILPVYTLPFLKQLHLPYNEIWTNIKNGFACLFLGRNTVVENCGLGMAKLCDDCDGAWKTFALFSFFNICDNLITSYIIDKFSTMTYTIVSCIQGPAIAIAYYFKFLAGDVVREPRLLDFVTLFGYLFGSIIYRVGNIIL
T2 sequence (Q9N623 whole entry A220S/I356T/K76T/M74I/N326S/N75E/Q271E/R371I): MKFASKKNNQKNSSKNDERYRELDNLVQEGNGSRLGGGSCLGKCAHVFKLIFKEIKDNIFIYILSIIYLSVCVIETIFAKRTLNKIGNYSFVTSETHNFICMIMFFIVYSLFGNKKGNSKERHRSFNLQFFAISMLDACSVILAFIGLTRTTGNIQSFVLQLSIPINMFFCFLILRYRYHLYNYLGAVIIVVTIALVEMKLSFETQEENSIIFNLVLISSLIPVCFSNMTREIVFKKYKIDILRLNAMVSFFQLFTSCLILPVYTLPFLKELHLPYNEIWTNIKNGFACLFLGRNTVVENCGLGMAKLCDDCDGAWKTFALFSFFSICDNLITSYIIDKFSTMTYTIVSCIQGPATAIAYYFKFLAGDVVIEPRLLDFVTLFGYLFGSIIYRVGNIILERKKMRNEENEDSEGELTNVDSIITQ

N[C@@H](Cc1ccc(O)cc1)C(=O)O [L-tyrosine]
inhibition at 500 µM (non-expressing oocytes [1]; [11]): 2.5 ± 0.03% | inhibition at 1000 µM (non-expressing oocytes [1]; [11]): 4.2 ± 0.03% | inhibition at 2000 µM (non-expressing oocytes [1]; [11]): 2.9 ± 0.04% | inhibition at 500 µM (non-expressing oocytes [1]; [12]): 96 ± 4.2% | inhibition at 1000 µM (non-expressing oocytes [1]; [12]): 99 ± 5.3% | inhibition at 2000 µM (non-expressing oocytes [1]; [12]): 101 ± 3.9% | inhibition at 500 µM (PfCRT^3D7 [2]; [13]): 99 ± 4.7% | inhibition at 1000 µM (PfCRT^3D7 [2]; [13]): 101 ± 3.8% | inhibition at 2000 µM (PfCRT^3D7 [2]; [13]): 99 ± 4.7% | inhibition at 500 µM (PfCRT^3D7 [2]; [14]): 2.8 ± 0.07% | inhibition at 1000 µM (PfCRT^3D7 [2]; [14]): 2.5 ± 0.04% | inhibition at 2000 µM (PfCRT^3D7 [2]; [14]): 3.1 ± 0.03% | inhibition at 500 µM (PfCRT^Dd2 [3]; [15]): 94 ± 4.6% | inhibition at 2000 µM (PfCRT^Dd2 [3]; [15]): 97 ± 3.5% | inhibition at 500 µM (PfCRT^Dd2 [3]; [16]): 96 ± 3.2% | inhibition at 1000 µM (PfCRT^Dd2 [3]; [16]): 98 ± 2.3% | inhibition at 2000 µM (PfCRT^Dd2 [3]; [16]): 99 ± 1.4% | inhibition at 500 µM (PfCRT^Ecu1110 [4]; [17]): 96 ± 5.3% | inhibition at 2000 µM (PfCRT^Ecu1110 [4]; [17]): 95 ± 3.4% | inhibition at 500 µM (PfCRT^Ecu1110 [4]; [18]): 32 ± 1% | inhibition at 1000 µM (PfCRT^Ecu1110 [4]; [18]): 32 ± 1.1% | inhibition at 2000 µM (PfCRT^Ecu1110 [4]; [18]): 32 ± 1.7% | inhibition at 500 µM (PfCRT^Ecu1110 [4]; [19]): 99 ± 1.4% | inhibition at 1000 µM (PfCRT^Ecu1110 [4]; [19]): 101 ± 1.4% | inhibition at 2000 µM (PfCRT^Ecu1110 [4]; [19]): 97 ± 1.5% | inhibition at 500 µM (PfCRT^Ecu1110 [4]; [20]): 29 ± 0.7% | inhibition at 1000 µM (PfCRT^Ecu1110 [4]; [20]): 29 ± 1.5% | inhibition at 2000 µM (PfCRT^Ecu1110 [4]; [20]): 29 ± 0.5% | Uptake of [3H]CQ (% non-expressing oocyte control), trans-stimulation (non-expressing oocytes [5]): 99 ± 3.3 % non-expressing oocyte control and 98 ± 4.2 % non-expressing oocyte control | Uptake of [3H]CQ (% PfCRTDd2 control), trans-stimulation, non-expressing oocytes (non-expressing oocytes [5]; SEM): 2.4 ± 0.01 % PfCRTDd2 control and 2.5 ± 0.01 % PfCRTDd2 control | [3H]CQ transport (% PfCRT3D7 control), trans-stimulation, PfCRT3D7 (PfCRT^3D7 [6]; SEM): 0.3 ± 0.04 % PfCRT3D7 control | activity at 5000 µM (PfCRT^3D7 [6]; [21]): 97 ± 3.4% | activity at 45000 µM (PfCRT^3D7 [6]; [21]): 98 ± 2.2% | activity at 5000 µM (PfCRT^3D7 [6]; [22]): 99 ± 2.2% | activity at 45000 µM (PfCRT^3D7 [6]; [22]): 100 ± 2.4% | activity at 5000 µM (PfCRT^3D7 [6]; [23]): 3.3 ± 0.04% | activity at 45000 µM (PfCRT^3D7 [6]; [23]): 3.3 ± 0.01% | activity at 5000 µM (PfCRT^Dd2 [7]; pH 5.5, read-out: PfCRT-mediated [3H]CQ transport, trans-stimulation (% PfCRTDd2 control), [test solute]i = 5 mM (intracellular), PfCRTDd2 oocytes, normalised to oocyte type control): 99 ± 2.6% | activity at 5000 µM (PfCRT^Dd2 [7]; pH 5.5, read-out: Uptake of [3H]CQ (% PfCRTDd2 control), trans-stimulation, PfCRTDd2, total [3H]CQ transport, [test solute]i = 5 mM (intracellular), mean ± SEM, SEM): 101 ± 3.3% | activity at 5000 µM (PfCRT^Dd2 [7]; pH 5.5, read-out: Uptake of [3H]CQ (% PfCRTDd2 control), trans-stimulation, PfCRTDd2 oocytes, [test solute]i = 5 mM, total [3H]CQ transport, normalised to the oocyte type control): 101 ± 3.3% | activity at 45000 µM (PfCRT^Dd2 [7]; pH 5.5, read-out: Uptake of [3H]CQ (% PfCRTDd2 control), trans-stimulation, PfCRTDd2 oocytes, total [3H]CQ transport, normalised to the oocyte type control): 96 ± 2.4% | activity at 5000 µM (PfCRT^Dd2 [7]; pH 5.5, read-out: [3H]CQ transport (% PfCRTDd2 control), trans-stimulation, PfCRTDd2, trans-stimulation, [test solute]i = 5 mM (injected), PfCRT-mediated component (background subtracted), mean ± SEM, SEM): 99 ± 2.6% | activity at 45000 µM (PfCRT^Dd2 [7]; pH 5.5, read-out: [3H]CQ transport (% PfCRTDd2 control), trans-stimulation, PfCRTDd2, trans-stimulation, PfCRT-mediated component (background subtracted), mean ± SEM, SEM): 94 ± 3.3% | activity at 5000 µM (PfCRT^Ecu1110 [8]; pH 5.5, read-out: PfCRT-mediated [3H]CQ transport, trans-stimulation (% PfCRTEcu1110 control), [test solute]i = 5 mM (intracellular), PfCRTEcu1110 oocytes, normalised to oocyte type control): 97 ± 1.8% | activity at 5000 µM (PfCRT^Ecu1110 [8]; pH 5.5, read-out: Uptake of [3H]CQ (% PfCRTEcu1110 control), trans-stimulation, PfCRTEcu1110 oocytes, [test solute]i = 5 mM, total [3H]CQ transport, normalised to the oocyte type control): 99 ± 2.6% | activity at 45000 µM (PfCRT^Ecu1110 [8]; pH 5.5, read-out: Uptake of [3H]CQ (% PfCRTEcu1110 control), trans-stimulation, PfCRTEcu1110 oocytes, [test solute]i = 45 mM (30 mM for some solutes due to solubility), total [3H]CQ transport, normalised to the oocyte type control): 100 ± 3.1% | activity at 5000 µM (PfCRT^Ecu1110 [8]; read-out: Uptake of [3H]CQ (% PfCRTDd2 control), trans-stimulation, PfCRTEcu1110, total [3H]CQ transport, [test solute]i = 5 mM (intracellular), mean ± SEM, SEM): 35 ± 2.1% | activity at 45000 µM (PfCRT^Ecu1110 [8]; read-out: Uptake of [3H]CQ (% PfCRTDd2 control), trans-stimulation, PfCRTEcu1110, total [3H]CQ transport, [test solute]i = 45 mM (intracellular; 30 mM for some solutes due to solubility), mean ± SEM, SEM): 36 ± 1.8% | activity at 5000 µM (PfNT1; [24]): 2.2 ± 0.02% | activity at 45000 µM (PfNT1; [24]): 2.2 ± 0.02% | activity at 5000 µM (PfNT1; [25]): 100 ± 3.7% | activity at 45000 µM (PfNT1; [25]): 99 ± 2.2% | Tested as potential co-substrate but not required for influx of VF-6 via PfCRT into the oocyte (PfCRT [9]): X | Tested as potential co-substrate but not required for influx of VF-6 via PfCRT into the oocyte (PfCRT [10]): X
